From patent publication US6790855B2 (priority 2000, dated 2004)
Structures can show the parent of a compound that is named as a salt.

Legend:
[1] = as an analgesic and as a respiratory depressant; cited from earlier work
subject's finger = assay: radiant light heat source finger latency after topical gel application; type: in vivo, human; conditions: Lidocaine alone 0.125 mg/ml or morphine alone 0.25 mg/ml gel, FIG. 7
mice = assay: radiant heat tailflick assay after topical administration (tail immersed in DMSO drug solution); type: in vivo; conditions: for response reached in dose-response curve: tested immediately; for response reached in dose-response curve / analgesic activity in words: FIG. 2; for analgesic response: constant concentration, FIG. 1a; for analgesic activity in words: dose-response; for peak response: fixed low dose: morphine 1.5 mM, lidocaine 0.9 mM, alone or both together, FIG. 3a; for Opioid ED50 Value: opioid alone or opioid component of fixed-ratio combination
[2] = 2 minutes exposure, listed as free base of lidocaine
[3] = topical, increasing concentrations, 2 minutes, FIG. 4

**Q.** Which “effectiveness orally relative to parenterally” value [1] does the source give for `COc1ccc2c3c1O[C@H]1[C@@H](O)C=C[C@H]4[C@@H](C2)N(C)CC[C@@]341` [codeine] here?
**A.** approximately 60%

**Q.** With `CCN(CC)CC(=O)Nc1c(C)cccc1C` [Lidocaine] as the compound, how does the “change in latency compared to baseline, in words” value (subject's finger) read?
**A.** Neither morphine nor Lidocaine produced appreciable changes in latency

**Q.** And the “response reached in dose-response curve” value (mice; [2])?
**A.** 75%

**Q.** And the “time of decrease to baseline levels” value (mice; 2 minutes exposure, time action curve over 30 minutes, FIG. 1b)?
**A.** ≤ 20 min

**Q.** And the analgesic response (mice; exposure 30 seconds)?
**A.** 20%

**Q.** What about the analgesic response (mice; exposure 2 minutes) of the same compound?
**A.** 70%

**Q.** And the “analgesic activity in words” value (mice; [2])?
**A.** biphasic dose-response curve

**Q.** What about the peak response (mice) of the same compound?
**A.** 20%

**Q.** What about the Shift (mice; lidocaine ED50, + morphine 3.0 mM vs alone) of the same compound?
**A.** 3.1

**Q.** And the Shift (mice; lidocaine ED50, + morphine 4.5 mM vs alone)?
**A.** 3.6

**Q.** What about the Shift (mice; mouse, in vivo) of the same compound?
**A.** 2.5

**Q.** And the ED50 (mice; topical lidocaine + morphine 1.5 mM)?
**A.** 1000 µM

**Q.** And the ED50 (mice; topical lidocaine + morphine 3.0 mM)?
**A.** 800 µM

**Q.** And the ED50 (mice; topical lidocaine + morphine 4.5 mM)?
**A.** 700 µM

**Q.** And the ED50 (mice; topical, drug alone)?
**A.** 2500 µM

**Q.** And the “Lidocaine ED50 Value” (mice; topical, tailflick, lidocaine alone (initial portion of curve) or lidocaine component of fixed-ratio combination)?
**A.** 2500 µM

**Q.** What does the source list for `CN1CC[C@]23CCCC[C@H]2[C@H]1Cc1ccc(O)cc13` [Levorphanol]?
**A.** ED50 (mice; [3]): 5000 µM; analgesic response in words (mice; [3]): full analgesic responses; Opioid ED50 Value (mice; topical, tailflick): 5000 µM

**Q.** For `CCN(CC)CC(=O)Nc1c(C)cccc1C` [Lidocaine HCl], which “response reached in dose-response curve” value (mice; 2 minutes exposure, HCl) is on record?
**A.** 50-60%

**Q.** And the “analgesic activity in words” value (mice; 2 minutes exposure, HCl)?
**A.** less effective

**Q.** For `CN1CC[C@]23c4c5ccc(O)c4O[C@H]2[C@@H](O)C=C[C@H]3[C@H]1C5` [Morphine], which “change in latency compared to baseline, in words” value (subject's finger) is on record?
**A.** Neither morphine nor Lidocaine produced appreciable changes in latency

**Q.** And the “analgesic activity in words” value (mice; 2 minutes exposure)?
**A.** intermediate potency between the two forms of lidocaine

**Q.** What about the peak response (mice) of the same compound?
**A.** 20%

**Q.** What about the Shift (mice; morphine ED50, + lidocaine 0.45 mM vs alone) of the same compound?
**A.** 1.7

**Q.** What about the Shift (mice; morphine ED50, + lidocaine 0.9 mM vs alone) of the same compound?
**A.** 4.1

**Q.** What about the Shift (mice; morphine ED50, + lidocaine 1.8 mM vs alone) of the same compound?
**A.** 4.7

**Q.** And the ED50 (mice; topical morphine + lidocaine 0.45 mM)?
**A.** 3600 µM

**Q.** And the ED50 (mice; topical morphine + lidocaine 0.9 mM)?
**A.** 1500 µM

**Q.** What about the ED50 (mice; topical morphine + lidocaine 1.8 mM) of the same compound?
**A.** 1300 µM

**Q.** And the ED50 (mice; topical, drug alone)?
**A.** 6100 µM

**Q.** What about the “Opioid ED50 Value” (mice; topical, tailflick) of the same compound?
**A.** 6100 µM
